# Test results published in ChEMBL document CHEMBL1138904, “2-Aryl(pyrrolidin-4-yl)acetic acids are potent agonists of sphingosine-1-phosphate (S1P) receptors” (Bioorg Med Chem Lett, 2006).
# Calls of active or inactive are those of the source. The calls are words filed in the database; no cut-off is given here.
# Experiments:
# [1] = Oral bioavailability in Sprague-Dawley rat at 1 mg/kg, iv and 2 mg/kg, po; format: ADME, organism-based; settings: in vivo
# [2] = biological target: Sphingosine 1-phosphate receptor 1 (Homo sapiens, UniProt P21453); assay: Displacement of [33P]S1P from human S1P1 receptor expressed in CHO cells; format: cell-based
# Sequence of Sphingosine 1-phosphate receptor 1 (P21453 whole entry): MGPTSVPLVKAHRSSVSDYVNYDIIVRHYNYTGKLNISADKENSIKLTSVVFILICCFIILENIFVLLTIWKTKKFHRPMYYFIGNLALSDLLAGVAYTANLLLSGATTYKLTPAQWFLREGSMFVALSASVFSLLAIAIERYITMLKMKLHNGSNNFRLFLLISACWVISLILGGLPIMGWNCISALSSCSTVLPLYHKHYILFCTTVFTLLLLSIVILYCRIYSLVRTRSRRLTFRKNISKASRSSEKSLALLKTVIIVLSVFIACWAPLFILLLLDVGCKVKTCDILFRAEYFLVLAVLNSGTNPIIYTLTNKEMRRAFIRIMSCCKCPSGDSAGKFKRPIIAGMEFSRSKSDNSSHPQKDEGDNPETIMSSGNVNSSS
# [3] = biological target: Sphingosine 1-phosphate receptor 2 (Homo sapiens, UniProt O95136); assay: Displacement of [33P]S1P from human S1P2 receptor expressed in CHO cells; format: cell-based
# Sequence of Sphingosine 1-phosphate receptor 2 (O95136 whole entry): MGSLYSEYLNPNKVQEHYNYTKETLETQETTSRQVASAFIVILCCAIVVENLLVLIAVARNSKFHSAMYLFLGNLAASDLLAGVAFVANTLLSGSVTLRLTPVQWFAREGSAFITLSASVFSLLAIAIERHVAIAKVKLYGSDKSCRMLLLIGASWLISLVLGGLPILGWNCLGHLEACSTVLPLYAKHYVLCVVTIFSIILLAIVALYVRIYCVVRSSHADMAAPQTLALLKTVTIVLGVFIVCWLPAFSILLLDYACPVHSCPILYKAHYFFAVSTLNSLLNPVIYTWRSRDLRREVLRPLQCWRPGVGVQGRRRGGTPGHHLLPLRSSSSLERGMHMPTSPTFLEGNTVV
# [4] = biological target: Sphingosine 1-phosphate receptor 3 (Homo sapiens, UniProt Q99500); assay: Displacement of [33P]S1P from human S1P3 receptor expressed in CHO cells; format: cell-based
# Sequence of Sphingosine 1-phosphate receptor 3 (Q99500 whole entry): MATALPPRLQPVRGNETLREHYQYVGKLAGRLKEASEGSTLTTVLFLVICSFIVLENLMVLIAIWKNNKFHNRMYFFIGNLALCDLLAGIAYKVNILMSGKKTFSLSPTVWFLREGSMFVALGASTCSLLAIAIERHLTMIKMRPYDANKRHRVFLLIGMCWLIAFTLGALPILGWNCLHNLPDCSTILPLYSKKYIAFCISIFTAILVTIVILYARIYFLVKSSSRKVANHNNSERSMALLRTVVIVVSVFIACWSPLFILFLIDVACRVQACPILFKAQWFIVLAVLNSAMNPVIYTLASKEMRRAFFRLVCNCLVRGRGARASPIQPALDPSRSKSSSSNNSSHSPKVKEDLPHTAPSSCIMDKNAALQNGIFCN
# [5] = biological target: T1, Sphingosine 1-phosphate receptor 4 (Homo sapiens, UniProt O95977); assay: Displacement of [33P]S1P from human S1P4 receptor expressed in CHO cells; format: cell-based
# T1 sequence (O95977 whole entry): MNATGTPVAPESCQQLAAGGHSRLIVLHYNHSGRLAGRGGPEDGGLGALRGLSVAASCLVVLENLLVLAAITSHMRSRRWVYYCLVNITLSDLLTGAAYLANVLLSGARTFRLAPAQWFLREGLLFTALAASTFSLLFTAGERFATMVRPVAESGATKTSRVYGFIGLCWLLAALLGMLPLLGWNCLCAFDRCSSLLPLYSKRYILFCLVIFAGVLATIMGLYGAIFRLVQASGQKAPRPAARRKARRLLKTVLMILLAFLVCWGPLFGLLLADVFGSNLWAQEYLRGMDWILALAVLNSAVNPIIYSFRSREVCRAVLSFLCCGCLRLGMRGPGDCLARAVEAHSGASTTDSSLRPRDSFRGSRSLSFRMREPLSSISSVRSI
# [6] = biological target: Sphingosine 1-phosphate receptor 5 (Homo sapiens, UniProt Q9H228); assay: Displacement of [33P]S1P from human S1P5 receptor expressed in CHO cells; format: cell-based
# Sequence of Sphingosine 1-phosphate receptor 5 (Q9H228 whole entry): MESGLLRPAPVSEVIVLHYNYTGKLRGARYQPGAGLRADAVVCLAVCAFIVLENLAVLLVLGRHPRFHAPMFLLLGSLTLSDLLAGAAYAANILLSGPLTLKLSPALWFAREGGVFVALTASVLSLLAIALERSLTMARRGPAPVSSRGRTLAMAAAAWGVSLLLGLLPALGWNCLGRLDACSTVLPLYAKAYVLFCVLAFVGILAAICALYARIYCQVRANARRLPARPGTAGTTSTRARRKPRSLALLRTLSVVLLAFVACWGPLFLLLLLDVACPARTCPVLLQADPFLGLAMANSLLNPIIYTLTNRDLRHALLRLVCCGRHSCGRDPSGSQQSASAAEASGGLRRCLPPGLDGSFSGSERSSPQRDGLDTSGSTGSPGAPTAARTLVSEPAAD
# PBL [7] = assay: Reduction in peripheral blood lymphocyte count in mouse at 10 mg/kg, po relative to control; format: functional; parameters: scale not given: the % may be the effect or the level left
# PBL [8] = assay: […] of peripheral blood lymphocyte in orally dosed mouse; format: functional, organism-based
# PBL [9] = assay: […] of peripheral blood lymphocyte in mouse at 1 mg/kg, po; format: functional, organism-based; parameters: dose 1 mg/kg
# [10] = Clearance in Sprague-Dawley rat at 1 mg/kg, iv and 2 mg/kg, po; format: ADME, organism-based; settings: in vivo
# [11] = Volume of distribution in Sprague-Dawley rat at 1 mg/kg, iv and 2 mg/kg, po; format: ADME, organism-based; settings: in vivo, read-out: Vss
# [12] = Half life in Sprague-Dawley rat at 1 mg/kg, iv and 2 mg/kg, po; format: ADME, organism-based; settings: in vivo
Structure (SMILES),bioavailability [1] [%],IC50 [2] [nM],IC50 [3] [µM],IC50 [4] [nM],IC50 [5] [nM],IC50 [6] [nM],Activity (PBL [7]) [%],Activity (PBL [8]),Activity (PBL [9]),clearance [10] [mL/min/kg],Vd [11] [L/kg],half-life [12] [min],IC50 ([3]; cho) [µM]
CC(C)Cc1ccc(-c2nc(-c3ccc(CN4CC(C(=O)O)C4)cc3)no2)cc1,67,–,–,–,–,–,–,–,–,–,–,–,–
O=C(O)CC1CNC(c2ccc(OCc3cc(-c4ccccc4)c(C(F)(F)F)s3)cc2)C1 (stereo not given),–,2.2,> 10,2100,390,390,39,–,–,–,–,–,–
O=C(O)C1CNC(c2ccc(OCc3cc(-c4ccccc4)c(C(F)(F)F)s3)cc2)C1 (stereo not given),–,25,> 10,4800,2700,130,–,–,–,–,–,–,–
O=C(O)C[C@@H]1CN[C@@H](c2ccc(-c3noc(-c4ccc(C5CCC(F)(F)CC5)cc4)n3)cc2)C1 (relative stereo),23,2,> 10,460,110,21,–,Active,Active,3.5,2.2,264,–
O=C(O)C[C@@H]1CN[C@@H](c2ccc(-c3noc(-c4ccc(C5CCCC5)cc4)n3)cc2)C1 (relative stereo),–,1,> 10,> 1000,120,68,–,–,–,–,–,–,–
O=C(O)C[C@@H]1CN[C@@H](c2ccc(-c3noc(-c4ccc(C5CCCCC5)cc4)n3)cc2)C1 (relative stereo),–,1.4,> 10,3100,110,57,–,Active,–,–,–,–,–
CC(C)Cc1ccc(-c2nc(-c3ccc([C@H]4C[C@@H](CC(=O)O)CN4)cc3)no2)cc1 (relative stereo),27,7.9,> 10,1500,160,140,–,Active,–,3.4,2.9,654,–
CC(C)Cc1ccc(-c2nc(-c3ccc([C@H]4C[C@H](CC(=O)O)CN4)cc3)no2)cc1 (relative stereo),79,5.7,> 10,> 1000,150,300,–,–,–,7.4,6.6,642,–
O=C(O)C[C@@H]1CN[C@@H](c2ccc(-c3noc(-c4ccc(CCC(F)(F)F)cc4)n3)cc2)C1 (relative stereo),–,5.5,> 10,> 1000,230,50,–,–,–,–,–,–,–
O=C(O)C[C@@H]1CN[C@@H](c2ccc(-c3noc(-c4ccc([C@@H]5CCC(F)(F)C5)cc4)n3)cc2)C1 (stereo in doubt; 22f) [listing 1 of 2 here],–,1.2,–,690,32,5.1,–,–,–,–,–,–,> 10
O=C(O)C[C@@H]1CN[C@@H](c2ccc(-c3noc(-c4ccc([C@@H]5CCC(F)(F)C5)cc4)n3)cc2)C1 (stereo in doubt; 22f) [listing 2 of 2 here],–,–,–,–,–,–,–,–,Active,–,–,–,–
O=C(O)C[C@@H]1CN[C@@H](c2ccc(-c3noc(-c4ccc([C@@H]5CCC(F)(F)C5)cc4)n3)cc2)C1 (stereo in doubt; 22g) [listing 1 of 2 here],36,0.8,> 10,1100,800,11,–,–,–,2.1,1.3,336,–
O=C(O)C[C@@H]1CN[C@@H](c2ccc(-c3noc(-c4ccc([C@@H]5CCC(F)(F)C5)cc4)n3)cc2)C1 (stereo in doubt; 22g) [listing 2 of 2 here],–,–,–,–,–,–,–,Active,Active,–,–,–,–
